According to patent publication US20180325889A1, “IMMUNOREGULATORY AGENTS” (FLEXUS BIOSCIENCES, INC., priority 2014, published 2018):

Biological target: T1, human IDO1/HEK293 cells (Homo sapiens, UniProt P14902)
T1 construct: expressed in transfected cells
T1 sequence (P14902 whole entry): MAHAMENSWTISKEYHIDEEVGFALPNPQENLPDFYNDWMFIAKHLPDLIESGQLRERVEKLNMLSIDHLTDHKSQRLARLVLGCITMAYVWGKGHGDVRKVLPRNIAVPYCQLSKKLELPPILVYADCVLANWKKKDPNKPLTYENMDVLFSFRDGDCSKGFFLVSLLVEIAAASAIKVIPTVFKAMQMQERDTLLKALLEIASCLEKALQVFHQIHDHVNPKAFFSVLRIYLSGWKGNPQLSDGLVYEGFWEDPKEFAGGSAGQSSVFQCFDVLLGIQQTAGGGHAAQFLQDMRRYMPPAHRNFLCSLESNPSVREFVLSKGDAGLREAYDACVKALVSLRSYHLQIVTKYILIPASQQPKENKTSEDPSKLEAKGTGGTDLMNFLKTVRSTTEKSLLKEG
Test: HEK Human IDO-1 cell-based IDO inhibition assay (kynurenine production)
Conditions: HEK293 cells stably expressing human IDO1, 20 hours incubation, absorbance at 490 nm; read-out: HEK Human IDO-1 Bio Activity (IDO IC50)
How it was run: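 Stopped with 0.2% TCA, 50 °C 30 min; supernatant mixed with 0.2% Ehrlich reagent, 30 min RT, kynurenine read as absorbance at 490 nm.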
Compound `O=C(NCC1(O)CCN(c2ccnc3ccc(F)cc23)CC1)c1ccc(Cl)cc1` [Example 81, 4-Chloro-N-((1-(6-fluoroquinolin-4-yl)-4-hydroxypiperidin-4-yl)methyl)benzamide] has an IC50 of less than 2000 nM.
In the case of `Cc1nnc(-c2ccc(C(=O)N[C@H](C)[C@H]3CC[C@@H](c4ccnc5ccc(F)cc54)CC3)cc2)o1` [Example 232, N—((R)-1-((1s,4S)-4-(6-fluoroquinolin-4-yl)cyclohexyl)ethyl)-4-(5-methyl-1,3,4-oxadiazol-2-yl)benzamide], the IC50 is reported as less than 250 nM.
For `C[C@@H](NC(=O)c1ccc(-c2cnccn2)cc1)[C@H]1CC[C@@H](c2ccnc3ccc(F)cc32)CC1` [Example 233, N-((R)-1-((1s,4S)-4-(6-fluoroquinolin-4-yl)cyclohexyl)ethyl)-4-(pyrazin-2-yl)benzamide], the IC50 was less than 50 nM.
`C[C@@H](NC(=O)c1ccc(-c2cncnc2)cc1)[C@H]1CC[C@@H](c2ccnc3ccc(F)cc32)CC1` [Example 234, N-((R)-1-((1s,4S)-4-(6-fluoroquinolin-4-yl)cyclohexyl)ethyl)-4-(pyrimidin-5-yl)benzamide] gave an IC50 of less than 50 nM.
Work on `C[C@@H](NC(=O)c1ccc(-c2cn(C)cn2)cc1)[C@H]1CC[C@@H](c2ccnc3ccc(F)cc32)CC1` [Example 235, N-((R)-1-((1s,4S)-4-(6-fluoroquinolin-4-yl)cyclohexyl)cthyl)-4-(1-methyl-1H-imidazol-4-yl)benzamide] yielded an IC50 of less than 50 nM.
Compound `COc1nccc(-c2ccc(C(=O)N[C@H](C)[C@H]3CC[C@@H](c4ccnc5ccc(F)cc54)CC3)cc2)n1` [Example 236, N-((R)-1-((1s,4S)-4-(6-fluoroquinolin-4-yl)cyclohexyl)ethyl)-4-(2-methoxypyrimidin-4-yl)benzamide] has an IC50 of less than 50 nM.
`C[C@@H](NC(=O)c1ccc(-c2ccc(S(C)(=O)=O)nc2)cc1)[C@H]1CC[C@@H](c2ccnc3ccc(F)cc32)CC1` [Example 237, N-((R)-1-((1s,4S)-4-(6-fluoroquinolin-4-yl)cyclohexyl)ethyl)-4-(6-(methylsulfonyl)pyridin-3-yl)benzamide] gave an IC50 of less than 2000 nM.
Compound `Cc1ncc(-c2ccc(C(=O)N[C@H](C)[C@H]3CC[C@@H](c4ccnc5ccc(F)cc54)CC3)cc2)s1` [Example 238, N-((R)-1-((1s,4S)-4-(6-fluoroquinolin-4-yl)cyclohexyl)ethyl)-4-(2-methylthiazol-5-yl)benzamide] has an IC50 of less than 50 nM.
`C[C@@H](NC(=O)c1ccc(-c2cnc(C#N)nc2)cc1)[C@H]1CC[C@@H](c2ccnc3ccc(F)cc32)CC1` [Example 240, 4-(2-cyanopyrimidin-5-yl)-N-((R)-1-((1s,4S)-4-(6-fluoroquinolin-4-yl)cyclohexyl)ethyl)benzamide] gave an IC50 of less than 2000 nM.
`COc1nc(-c2ccc(C(=O)N[C@H](C)[C@H]3CC[C@@H](c4ccnc5ccc(F)cc54)CC3)cc2)cs1` [Example 241, N-((R)-1-((1s,4S)-4-(6-fluoroquinolin-4-yI)cyclohexyl)ethyl)-4-(2-methoxythiazol-4-yl)benzamide] showed an IC50 of less than 50 nM.
In the case of `C[C@@H](NC(=O)c1ccc(-c2ccc(C(C)(C)O)cc2)cc1)[C@H]1CC[C@@H](c2ccnc3ccc(F)cc32)CC1` [Example 242, N-((R)-1-((1s,4S)-4-(6-fluoroquinolin-4-yl)cyclohexyl)ethyl)-4′-(2-hydroxypropan-2-yl)biphenyl-4-carboxamide], the IC50 is reported as less than 250 nM.
For `C[C@@H](NC(=O)c1ccc(-c2cscn2)cc1)[C@H]1CC[C@@H](c2ccnc3ccc(F)cc32)CC1` [Example 243, N-((R)-1-((1s,4S)-4-(6-fluoroquinolin-4-yl)cyclohcxyl)cthyl)-4-(thiazol-4-yl)benzamide], the IC50 was less than 50 nM.
For `C[C@@H](NC(=O)c1ccc(-c2nnco2)cc1)[C@H]1CC[C@@H](c2ccnc3ccc(F)cc32)CC1` [Example 244, N-((R)-1-((1s,4S)-4-(6-fluoroquinolin-4-yl)cyclohexyl)ethyl)-4-(1,3,4-oxadiazol-2-yl)benzamide], the IC50 was less than 50 nM.
`COc1ccc(-c2ccc(C(=O)N[C@H](C)[C@H]3CC[C@@H](c4ccnc5ccc(F)cc54)CC3)cc2)cn1` [Example 245, N-((R)-1-((1s,4S)-4-(6-fluoroquinolin-4-yl)cyclohexyl)ethyl)-4-(6-methoxypyridin-3-yl)benzamide] gave an IC50 of less than 50 nM.
For `C[C@@H](NC(=O)c1ccc(N2CCOCC2)cc1)[C@H]1CC[C@@H](c2ccnc3ccc(F)cc32)CC1` [Example 246, N-((R)-1-((1s,4S)-4-(6-fluoroquinolin-4-yl)cyclohexyl)ethyl)-4-morpholinobenzamide], the IC50 was less than 250 nM.
In the case of `C[C@@H](NC(=O)c1ccc(C2CC2)cc1)[C@H]1CC[C@@H](c2ccnc3ccc(F)cc32)CC1` [Example 247, 4-cyclopropyl-N-((R)-1-((1s,4S)-4-(6-fluoroquinolin-4-yl)cyclohexyl)ethyl)benzamide], the IC50 is reported as less than 50 nM.
Compound `C[C@@H](NC(=O)c1ccc(C2(C)CC2)cc1)[C@H]1CC[C@@H](c2ccnc3ccc(F)cc32)CC1` [Example 248, N-((R)-1-((1s,4S)-4-(6-fluoroquinolin-4-yl)cyclohexyl)ethyl)-4-(1-methylcyclopropyl)benzamide] has an IC50 of less than 50 nM.
In the case of `C[C@@H](NC(=O)c1ccc(C(F)(F)F)cc1)[C@H]1CC[C@@H](c2ccnc3ccc(F)cc32)CC1` [Example 249, N-((R)-1-((1s,4S)-4-(6-fluoroquinolin-4-yl)cyclohexyl)ethyl)-4-(trifluoromethyl)benzamide], the IC50 is reported as less than 50 nM.
Compound `C[C@@H](NC(=O)c1ccc(-c2cnco2)cc1)[C@H]1CC[C@@H](c2ccnc3ccc(F)cc32)CC1` [Example 250, N-((R)-1-((1s,4S)-4-(6-fluoroquinolin-4-yl)cyclohexyl)ethyl)-4-(oxazol-5-yl)benzamide] has an IC50 of less than 50 nM.
In the case of `C[C@@H](NC(=O)c1ccc(-c2ncnn2C)cc1)[C@H]1CC[C@@H](c2ccnc3ccc(F)cc32)CC1` [Example 251, N-((R)-1-((1s,4S)-4-(6-fluoroquinolin-4-yl)cyclohexyl)ethyl)-4-(1-methyl-1H-1,2,4-triazol-5-yl)benzamide], the IC50 is reported as less than 250 nM.
Compound `Cc1cnc(-c2ccc(C(=O)N[C@H](C)[C@H]3CC[C@@H](c4ccnc5ccc(F)cc54)CC3)cc2)s1` [Example 252, N-((R)-1-((1s,4S)-4-(6-fluoroquinolin-4-yl)cyclohexyl)ethyl)-4-(5-methylthiazol-2-yl)benzamide] has an IC50 of less than 50 nM.
Work on `C[C@@H](NC(=O)c1ccc(-c2ncc(C#N)s2)cc1)[C@H]1CC[C@@H](c2ccnc3ccc(F)cc32)CC1` [Example 253, 4-(5-cyanothiazol-2-yl)-N-((R)-1-((1s,4S)-4-(6-fluoroquinolin-4-yl)cyclohexyl)ethyl)benzamide] yielded an IC50 of less than 50 nM.
`CCC(NC(=O)c1ccc(Cl)cc1)[C@H]1CC[C@@H](c2ccnc3ccc(C(F)(F)F)cc32)CC1` (stereo partly shown) [Example 254, 4-chloro-N-(1-((1s, 4s)-4-(6-(trifluoromethyl)quinolin-4-yl)cyclohexyl)propyl)benzamide] showed an IC50 of less than 50 nM.
`CCC(NC(=O)c1ccc(-n2cccc2)cc1)[C@H]1CC[C@@H](c2ccnc3ccc(C(F)(F)F)cc32)CC1` (stereo partly shown) [Example 255, 4-(1H-pyrrol-1-yl)-N-(1-((1s, 4s)-4-(6-(trifluoromethyl)quinolin-4-yl)cyclohexyl)propyl)benzamide] gave an IC50 of less than 50 nM.
`CCC(NC(=O)c1ccc(OC)nc1)[C@H]1CC[C@@H](c2ccnc3ccc(C(F)(F)F)cc32)CC1` (stereo partly shown) [Example 256, 6-methoxy-N-(1-((1s, 4S)-4-(6-(trifluoromethyl)quinolin-4-yl)cyclohexyl)propyl)nicotinamide] showed an IC50 of less than 50 nM.
`CCC(NC(=O)c1ccc(-c2ccccc2)cc1)C1CCC(c2ccnc3ccc(F)cc23)CC1` (stereo not shown) [Example 258, N-(1-(4-(6-fluoroquinolin-4-yl)cyclohexyl)propyl)bi-phenyl-4-carboxamide] showed an IC50 of less than 50 nM.
“(R)-1-(cis-4-(6-fluoroquinolin-4-yl)cyclohexyl)-N-methylethanamine [Example 194]” gave an IC50 of less than 50 nM.

System: not given
Test: not given
Conditions: not given
For `O=C(NCC1(O)CCN(c2ccnc3ccc(F)cc23)CC1)c1ccc(Cl)cc1` [Example 81, 4-Chloro-N-((1-(6-fluoroquinolin-4-yl)-4-hydroxypiperidin-4-yl)methyl)benzamide], the melting point was 91 to 94 °C.
